One series addresses T1, 15-PGDH (Homo sapiens, UniProt P15428).
T1 construct: 100,000 g supernatants prepared from PMA-treated HL-60 cells converted 15-HETE to 15-oxo-ETE; endogenous in cells; host or cells: HL-60 cells treated with PMA (16 nM, 24-72 h); freeze-thaw lysate, 100,000 g supernatant
T1 sequence (P15428 1-266): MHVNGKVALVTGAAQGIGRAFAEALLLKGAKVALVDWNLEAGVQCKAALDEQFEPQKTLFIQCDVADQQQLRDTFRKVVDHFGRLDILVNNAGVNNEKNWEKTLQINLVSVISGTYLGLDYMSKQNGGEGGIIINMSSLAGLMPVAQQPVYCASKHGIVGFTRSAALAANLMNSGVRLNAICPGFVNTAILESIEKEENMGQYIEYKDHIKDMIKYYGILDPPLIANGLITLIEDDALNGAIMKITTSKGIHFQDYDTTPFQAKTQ
As to the kind of experiment: 15-HETE to 15-oxo-ETE dehydrogenase activity of 100,000 g supernatants of PMA-treated HL-60 cells. In kind it is biochemical. Here is the method: (§1) Human PMN were obtained from healthy volunteers by gradient centrifugation of heparinized fresh venous blood (Böyum, A. ([…]) Scand. J. Clin. Lab. Invest. 21:77). HL-60 cells were seeded in RPMI supplemented with penicillin (100 U/ml), streptomycin (100 μ/ml), fetal bovine serum (10%) (Hyclone, Logan, Utah) and incubated (37° C. with 5% CO2 atmosphere) in plastic 250 ml flasks. Individual flasks containing […] HL-60 cells/ml were incubated in the presence or absence of phorbol 12-myristate 13-acetate (PMA) (10 or 16 nM, 24-27 h) and adherence was monitored for induction of macrophage-like phenotype as in Collins, S. J. (1987) Blood 70:1233. […]
(§2) Incubations with eicosanoids were stopped with cold methanol containing either PGB2 or 5-HETE as internal standards (5-HETE was used when 15-oxo-ETE was quantified). […] Formation of 15-oxo-ETE by 100,000 g supernatants (cf. Agins, A. P. et al. (1987) Agents Actions 21:397; Xun, C-Q. et al.(1991) Biochem. J. 279:553; and Sok, D-E. et al. (1988) Biochem. Biophys. Res. Commun. 156:524) was quantified after RP-HPLC using an ODS column (4.6 mm×25 cm) eluted with methanol/H2O/acetic acid (70:30:0.01, v/v/v) monitored at 280 nm with a flow rate of 1 ml/min. […] On-line spectra were recorded using a diode array detector (Hewlett-Packard 1040M series II) equipped with HPLC^3D ChemStation software (DOS series). […]

For series [1], the system named is Intact neutrophils from peripheral blood. The series is described as follows: LXA4 metabolism by intact neutrophils. In kind it is in vitro ADME, human. Conditions: intact neutrophils of healthy donors. Here is the method: as §1, §2
The test system of another series is A549 cells. The series is described as follows: A549 cell proliferation, MTT assay. In kind it is cell-based, human. The method in brief: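 A549 cells, ~2000/well, given compounds at 5-1000 nM or 0.15% ethanol vehicle after 24 h, quadruplicates, up to 96 h at 37° C. MTT added 4 h, dye extracted in acidified isopropanol and read at 570 nm; MTT signal linear with cell number.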
For orientation: Formazan colour is commonly taken as a measure of viable cells.

Structures are written as SMILES.

Regarding `CCCCC[C@H](O)/C=C/C=C\C=C\C=C\[C@@H](O)[C@@H](O)CCCC(=O)O` [LXA4, (5S, 6R, 15S)-trihydroxy-7E, 9E, 11Z, 13E-eicosatetraenoic acid], the Ki – broadly, a dissociation constant, usually derived from enzyme kinetics or from competition with a known ligand – at 15-PGDH (Lineweaver-Burke plots, S.E.M., n=6, read-out: Ki, competition for catalysis of 15-HETE) turned out to be 8.2 ± 2.6 µM. Besides, the “block of 15-oxo-ETE formation” value at 15-PGDH (equimolar concentrations of LXA4 and 15-HETE) was “≈ 50%”. Moreover, the “metabolism of exogenous LXA4” value in series [1] is listed as “did not significantly metabolize”. For the same compound, the “inhibition of A549 cell proliferation over time” value in the series with A549 cells (1 μM, after 72 and 96 hours of treatment) is reported as “inhibited A549 cell proliferation”. The inhibition – broadly, how much of the control response was suppressed – at 0.1 µM with A549 cells (Homo sapiens, A549, 10^−7 M, 72 hours at 37° C., mean ± SEM, 3 to 7 experiments) was 16.3 ± 5.2%. Moreover, in the series on A549 cells (Homo sapiens, A549, MTT assay, 72 hours, read-out: half maximum inhibition (IC50) of A549 cell proliferation), the IC50 was ~0.08 µM.

The values above are taken from patent US20030134901A1, “Lipoxin compounds and their use in treating cell proliferative disorders” (priority 1993, published 2003).
